Source: PMC4885110, “Structure-Based Design of an in Vivo Active Selective BRD9 Inhibitor” (Journal of Medicinal Chemistry, 2016)

How the values were obtained:
U2OS cells = assay: Toxicity in U2OS cells; assay type: cell-based; conditions: after 24 h
Procedure: Figure 4 FRAP assay using U2OS cells transfected with GFP–BRD9. (a) Recovery half times of wild-type (wt) cells treated with DMSO in the absence or presence of 2.5 μM SAHA or treated with 1 at 1 μM and SAHA as indicated. In addition, cells expressing GFP–BRD9 with a BD-inactivating mutation (N100F) were analyzed. Significant differences relative to cells treated with SAHA (p < 0.0001) are shown by ****. (b) Time dependence of fluorescence recovery in the bleached area of cells expressing wt or mutant GFP–BRD9 with the corresponding treatments shown in (a). (c) Recovery half times of cells expressing wt GFP–BRD9 treated with various concentrations of DMSO and 2 in the presence or absence of SAHA as indicated. Cells expressing the GFP–BRD9 mutant (N100F) were treated as indicated. Significant differences relative to cells treated with SAHA (p < 0.0001) are shown by ****. (d) Time dependence of fluorescence recovery in the bleached area of cells expressing wt or mutant GFP–BRD9 with the corresponding treatments shown in (c). Curves represent averaged data of at least 20 replicates. […] The N100F construct is a negative control BRD9 mutant in which Asn100 is replaced by Phe100 and therefore acetylated histone cannot bind because of the lack of interaction to the anchor Asn and because of steric hindrance. […]

Aqueous solubility = assay type: physicochemical; conditions: aqueous McIlvaine buffer, pH 6.8
Procedure: (§1) this tumor mouse model body weight changes can occur due to increased tumor load or due to […]
(§2) Determination of physicochemical and in vitro DMPK parameters […]
(§3) diluted with aqueous McIlvaine buffer at pH 6.8, or with acetonitrile/water (1:1) as a reference. Samples were shaken for 24 h at room temperature in 96-well plates (Whatman Uniplate® 96 wells, 750 µL, polypropylene, round bottom). The plate was then centrifuged at 3,000 rpm for 2 min. 250 µL of each sample were transferred to a Millipore MultiScreenHTS filter plate with a polycarbonate membrane, pore size 0.45 μm. Filtrates were collected by centrifugation at 3,000 rpm for 2 min. The dissolved concentrations were determined by UPLC/UV on a Waters ACQUITY UPLC® SQD system equipped with a Waters ACQUITY UPLC® BEH 2.1x50 mm C18 column, particle size 1.7 µm, using a short gradient with water/0.1% formic acid as solvent A and acetonitrile/0.1 % formic acid as solvent B (5 to 95 % B with 1.7 min total cycle time). Compound signals were measured with a photodiode array UV detector operated at 254 nm. Solubility was determined with a one point calibration by comparing peak areas relative to the reference standard using Waters Empower software. […]

[1] = Hepatocytes predicted clearance, mouse; assay type: in vitro ADME
Procedure: as §1, §2, §3
(§4) In vitro plasma protein binding (PPB) was determined by a semi-automated equilibrium dialysis assay on a Tecan robotic system at a test compound concentration of 3 µM. […]

[2] = Hepatocytes predicted clearance, rat; assay type: in vitro ADME
Procedure: as §1, §2, §3, §4

[3] = Hepatocytes predicted clearance, human; assay type: in vitro ADME
Procedure: as §1, §2, §3, §4

[4] = assay type: in vivo; conditions: Mouse 5 mg/kg i.v. bolus
Excerpt: Mice were housed under pathogen-free conditions (AAALAC accredited facility) and treated according to the institutional, governmental and European Union guidelines (GV-SOLAS, Felasa, Austrian Animal Protection Laws). All animal studies were reviewed and approved by the internal ethics committee of Boehringer Ingelheim and the local governmental committee (Amt der Wiener Landesregierung, Magistratsabteilung 58, Vienna, Austria).
Pharmacokinetic and efficacy studies in mice […]
Following injection of the cells animals were randomized based on body weight (n=10/group). […] All doses were calculated relative to the mouse body weight on the treatment day. […]
body weight loss. Tumour load was measured 2-3 times weekly based on bioluminescence imaging as described previously. […]
1x10^6 cells/mL were incubated and continuously shaken in a Thermo Scientific Cytomat™ for 4 h at 85-95% relative humidity and 5-10% CO2 at 37 °C. Aliquots were taken from the medium at 0, 0.5, 1, 1.5, 2.5 und 4 h and concentrations of the test compounds quantified by HPLC/MS/MS on a BIOCIUS Life Sciences RapidFire® system coupled to a Thermo Scientific™ TSQ Vantage™ triple-quadrupole mass spectrometer. Predicted clearances were calculated using the well-stirred model.
as §4

[5] = 1 week tolerability study in non-tumor-bearing CIEA-NOG mice; assay type: in vivo; conditions: 180 mg/kg, continuous daily dosing, female CIEA-NOG mice
[6] = Disseminated EOL-1 AML mouse model; assay type: in vivo; conditions: female, CIEA-NOG, po, 180 mg/kg p.o., plasma, last day of treatment
[7] = parameters: method as in earlier work; conditions: cited from earlier work

| Compound | toxicity in U2OS cells (U2OS cells) | solubility at 24 h (Aqueous solubility) [µg/mL] | Hepatocytes pred. CL mouse [1] [% QH] | Hepatocytes pred. CL rat [2] [% QH] | Hepatocytes pred. CL human [3] [% QH] | plasma CL [4] [% QH] | tolerability [5] | AUC(0-t) [6] [µM·h] | membrane permeability [7] [nM/s] |
| --- | --- | --- | --- | --- | --- | --- | --- | --- | --- |
| COc1cc(-c2cn(C)c(=O)c3cnccc23)cc(OC)c1CN(C)C [Compound 1, n1cc2c(cc1)C(=CN(C2=O)C)c1cc(c(c(c1)OC)CN(C)C)OC] | no toxicity | > 91 | 58 | < 7 | 17 | 57 | – | – | – |
| COc1cc(-c2cn(C)c(=O)c3cnccc23)c(OC)cc1CN(C)C [Compound 2, 4-{4-[(Dimethylamino)methyl]-2,5-dimethoxyphenyl}-2-methyl-1,2-dihydro-2,7-naphthyridin-1-one] | no toxicity | > 90 | 56 | 17 | 17 | 65 | well-tolerated | 268 | – |
| CCn1cc(-c2cccc(C(F)(F)F)c2)c2sc(C(=N)NC3CCS(=O)(=O)CC3)cc2c1=O [I-BRD9] | – | – | – | – | – | – | – | – | 210 |
